From patent publication US9732032B2, “3-aminocyclopentane carboxamide derivatives” (Merck Patent GmbH, priority 2012, dated 2017)
pIC50: −log10 of the molar value.

The compounds below were run against T1, human recombinant full-length fatty acid synthase (FASN) (Homo sapiens, UniProt P49327) (assay: Biochemical activity testing of human fatty acid synthase FASN (NADPH fluorescence intensity assay)). Details: NADPH fluorescence decrease (ex 340 nm / em 460 nm), 30 minutes at room temperature, read-out: IC50 FASN (enzyme assay).
T1 construct: human recombinant full-length fatty acid synthase; made in house; host or cells: SF9 cells
T1 sequence (P49327 whole entry): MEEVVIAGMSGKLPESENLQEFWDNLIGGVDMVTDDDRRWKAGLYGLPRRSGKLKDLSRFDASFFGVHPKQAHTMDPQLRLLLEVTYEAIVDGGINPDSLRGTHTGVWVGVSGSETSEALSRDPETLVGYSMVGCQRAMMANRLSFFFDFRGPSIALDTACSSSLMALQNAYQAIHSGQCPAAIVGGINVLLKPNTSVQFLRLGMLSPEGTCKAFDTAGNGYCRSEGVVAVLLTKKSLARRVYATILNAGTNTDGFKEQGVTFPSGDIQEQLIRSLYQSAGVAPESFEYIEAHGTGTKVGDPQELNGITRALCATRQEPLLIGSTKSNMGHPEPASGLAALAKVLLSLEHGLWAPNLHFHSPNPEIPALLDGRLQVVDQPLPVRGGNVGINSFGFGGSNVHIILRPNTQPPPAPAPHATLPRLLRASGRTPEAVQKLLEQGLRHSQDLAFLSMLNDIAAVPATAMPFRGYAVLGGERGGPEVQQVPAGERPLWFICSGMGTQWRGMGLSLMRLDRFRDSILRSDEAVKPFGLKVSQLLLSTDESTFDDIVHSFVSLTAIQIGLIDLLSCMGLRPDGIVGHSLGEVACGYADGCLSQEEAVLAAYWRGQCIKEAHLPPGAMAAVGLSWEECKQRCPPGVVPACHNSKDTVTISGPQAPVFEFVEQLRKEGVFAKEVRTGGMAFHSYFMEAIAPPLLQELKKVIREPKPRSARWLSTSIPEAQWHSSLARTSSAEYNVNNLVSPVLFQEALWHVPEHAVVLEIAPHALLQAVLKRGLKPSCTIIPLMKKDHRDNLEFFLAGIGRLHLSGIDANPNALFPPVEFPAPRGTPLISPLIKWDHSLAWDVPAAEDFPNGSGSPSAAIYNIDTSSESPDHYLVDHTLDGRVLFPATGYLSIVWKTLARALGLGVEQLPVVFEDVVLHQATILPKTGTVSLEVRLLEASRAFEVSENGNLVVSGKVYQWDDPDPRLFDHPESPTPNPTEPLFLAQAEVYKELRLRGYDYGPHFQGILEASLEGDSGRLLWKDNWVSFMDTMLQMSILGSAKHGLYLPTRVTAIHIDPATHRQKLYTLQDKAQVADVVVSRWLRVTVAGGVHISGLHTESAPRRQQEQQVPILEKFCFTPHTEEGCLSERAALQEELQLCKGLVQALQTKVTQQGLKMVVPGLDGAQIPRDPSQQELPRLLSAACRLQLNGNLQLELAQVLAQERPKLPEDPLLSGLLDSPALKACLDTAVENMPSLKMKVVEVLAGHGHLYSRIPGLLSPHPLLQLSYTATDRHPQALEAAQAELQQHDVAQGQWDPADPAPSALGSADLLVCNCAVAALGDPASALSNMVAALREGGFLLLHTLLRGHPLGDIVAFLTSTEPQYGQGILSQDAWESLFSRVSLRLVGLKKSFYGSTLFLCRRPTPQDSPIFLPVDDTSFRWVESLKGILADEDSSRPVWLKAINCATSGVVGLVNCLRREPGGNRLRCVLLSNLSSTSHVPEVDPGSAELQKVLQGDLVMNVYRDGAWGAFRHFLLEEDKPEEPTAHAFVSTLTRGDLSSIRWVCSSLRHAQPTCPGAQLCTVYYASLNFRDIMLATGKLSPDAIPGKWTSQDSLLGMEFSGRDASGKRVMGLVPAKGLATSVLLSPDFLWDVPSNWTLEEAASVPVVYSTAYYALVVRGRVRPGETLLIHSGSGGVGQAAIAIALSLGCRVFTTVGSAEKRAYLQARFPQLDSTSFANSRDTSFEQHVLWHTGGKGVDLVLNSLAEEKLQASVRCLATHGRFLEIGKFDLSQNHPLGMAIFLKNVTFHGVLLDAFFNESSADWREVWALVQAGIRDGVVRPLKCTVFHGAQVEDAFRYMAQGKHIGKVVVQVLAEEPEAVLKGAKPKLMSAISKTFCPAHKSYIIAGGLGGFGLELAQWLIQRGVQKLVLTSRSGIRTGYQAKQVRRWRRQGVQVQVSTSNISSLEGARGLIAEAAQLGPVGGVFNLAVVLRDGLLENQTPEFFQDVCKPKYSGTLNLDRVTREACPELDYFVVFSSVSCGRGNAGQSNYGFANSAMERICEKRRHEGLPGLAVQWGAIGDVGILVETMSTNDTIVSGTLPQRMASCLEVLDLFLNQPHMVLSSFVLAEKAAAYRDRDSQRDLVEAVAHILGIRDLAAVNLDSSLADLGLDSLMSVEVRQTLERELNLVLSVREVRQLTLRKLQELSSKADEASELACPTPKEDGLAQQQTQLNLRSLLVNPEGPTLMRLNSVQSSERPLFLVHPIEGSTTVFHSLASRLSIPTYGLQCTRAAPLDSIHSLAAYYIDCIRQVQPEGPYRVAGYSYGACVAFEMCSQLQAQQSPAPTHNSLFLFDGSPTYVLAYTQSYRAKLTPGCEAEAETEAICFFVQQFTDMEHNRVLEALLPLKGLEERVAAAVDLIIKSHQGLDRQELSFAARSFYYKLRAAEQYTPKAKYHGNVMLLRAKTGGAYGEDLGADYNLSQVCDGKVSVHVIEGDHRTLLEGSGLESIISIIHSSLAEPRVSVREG
Excerpt: aq (aqueous), h (hour), g (gram), L (liter), mg (milligram), MHz (Megahertz), (melting point), eq (equivalent), mL (milliliter), L (microliter), ACN (acetonitrile), AcOH (acetic acid), CDCl3 (deuterated chloroform), CD3OD (deuterated methanol), CH3CN (acetonitrile), c-hex (cyclohexane), DCC (dicyclohexyl carbodiimide), DCM (dichloromethane), DIC (diisopropyl carbodiimide), DIEA (diisopropylethyl-amine), DMF (dimethylformamide), DMSO (dimethylsulfoxide), DMSO-d6 (deuterated dimethylsulfoxide), EDC (1-(3-dimethyl-amino-propyl)-3-ethylcarbodiimide), ESI (Electro-spray ionization), EtOAc (ethyl acetate), Et2O (diethyl ether), EtOH (ethanol), HATU (dimethylamino-([1,2,3]triazolo[4,5-b]pyridin-3-yloxy)-methylene]-dimethylammonium hexafluorophosphate), HPLC (High Performance Liquid Chromatography), i-PrOH (2-propanol), K2CO3 (potassium carbonate), LC (Liquid Chromatography), MeOH (methanol), MgSO4 (magnesium sulfate), MS (mass spectrometry), MTBE (Methyl tert-butyl ether), NaHCO3 (sodium bicarbonate), NaBH4 (sodium borohydride), NMM (N-methyl morpholine), NMR (Nuclear Magnetic Resonance), PyBOP (benzotriazole-1-yl-oxy-trispyrrolidino-phosphonium hexafluorophosphate), RT (room temperature), Rt (retention time), SPE (solid phase extraction), TBTU (2-(1-H-benzotriazole-1-yl)-1,1,3,3-tetramethyluromium tetrafluoro borate), TEA (triethylamine), TFA (trifluoroacetic acid), THF (tetrahydrofuran), TLC (Thin Layer Chromatography), UV (Ultraviolet). Description of the In Vitro Assays Abbreviations: GST=Glutathione-S-transferase FRET=Fluorescence resonance energy transfer HTRF®=(homogenous time resolved fluorescence) HEPES=4-(2-hydroxyethyl)-1-piperazine ethanesulfonic acid buffer DTT=Dithiothreitol BSA=bovine serum albumin CHAPS=detergent; CHAPS=3[(3-cholamidopropyl)dimethylammonio]-1-propanesulfonate Biochemical Activity Testing of Human Fatty Acid Synthase FASN
Fatty acid synthase FASN is a multifunctional enzyme with seven catalytic activities thereby synthesising long chain fatty acids especially palmitoyl-CoA in the presence of co-factor NADPH starting from the substrates acetyl-CoA and malonyl-CoA. The reductive synthesis is realized by the oxidation of NADPH to NADP. Since NADPH has a high fluorescence intensity quantum yield compared to NADP with excitation at 340 nm and emission at 460 nm, the reaction can be monitored via the decrease in fluorescence intensity. The biochemical FASN activity testing was performed as 384 well two-time-point kinetic fluorescence intensity assay format in Greiner low volume medium binding 384-well black microtiter plates in a total assay volume of 8 μl and was used for high throughput screen. In each well 3 μl 40 nM human recombinant full-length fatty acid synthase (produced in-house in SF9 cells) were dispensed in the following assay buffer: 50 mM potassium phosphate buffer pH 7.0, 0.005% (w/v) BSA, 2 mM Glutathione, 0.02% Tween-20. Then 2 μl of 200 μM NADPH in assay buffer were added, followed by the addition of the test compounds in 10 dilution concentrations starting with 30 μM (final concentration) to get a final DMSO content of 1% (v/v). The mixture was incubated for at least 15 min at room temperature. After the pre-incubation the enzymatic reaction was started by the addition of 2 μl substrate solution (80 μM acetyl-CoA, 240 μM malonyl-CoA). A first fluorescence intensity measurement (time point one) was performed with an Envision multimode reader (Perkin Elmer LAS Germany GmbH) at excitation wavelength 340 nm (lamp mode) and emission wavelength 460 nm. The reaction was incubated for 30 minutes at room temperature. After this the fluorescence intensity was measured again in the Envision using the same parameters as described above (second time point measurement). The data were analysed by subtracting the first time point measurement value from the second time point measurement value (after the enzymatic reaction). The differences of the emission signals were determined. […]
`CCNC(=O)[C@H]1CC[C@@H](N(C)C(=O)c2ccc(-c3ccc(F)cc3F)cc2)C1` [Compound A63, 2′,4′-difluoro-biphenyl-4-carboxylic acid ((1R,3S)-3-ethylcarbamoyl-cyclopentyl)-methyl-amide] was tested, and the pIC50 was over 6.52.
For `CCNC(=O)[C@H]1CC[C@@H](N(C)C(=O)c2ccc(-c3ccccc3C(F)(F)F)cc2)C1` [Compound A64, 2′-trifluoromethyl-biphenyl-4-carboxylic acid ((1R,3S)-3-ethylcarbamoyl-cyclopentyl)-methyl-amide], the pIC50 was over 6.52.
For `CCNC(=O)[C@H]1CC[C@@H](N(C)C(=O)c2ccc(-c3ccccc3C)c(C)c2)C1` [Compound A65, 2,2′-dimethyl-biphenyl-4-carboxylic acid ((1R,3S)-3-ethylcarbamoyl-cyclopentyl)-methyl-amide], the pIC50 was over 6.52.
In the case of `CN(C(=O)c1ccc(-c2ccccc2)cc1)[C@@H]1CC[C@H](C(=O)NC2(C)CC2)C1` [Compound A67, biphenyl-4-carboxylic acid methyl-[(1R,3S)-3-(1-methyl-cyclopropylcarbamoyl)-cyclopentyl]-amide], the pIC50 was over 6.52.
`CN(C(=O)c1ccc(-c2nc3ccccc3o2)cc1)[C@@H]1CC[C@H](C(=O)NC2(C)CC2)C1` [Compound A68, 4-benzoxazol-2-yl-N-methyl-N-[(1R,3S)-3-(1-methyl-cyclopropylcarbamoyl)-cyclopentyl]-benzamide] showed a pIC50 of over 6.52.
Compound `CCNC(=O)[C@H]1CC[C@@H](N(C)C(=O)c2ccc(C#Cc3ccc(OC)cc3)cc2)C1` [Compound A69, N-((1R,3S)-3-ethylcarbamoyl-cyclopentyl)-4-(4-methoxy-phenylethynyl)-N-methyl-benzamide] has a pIC50 of over 6.52.
Work on `CCNC(=O)[C@H]1CC[C@@H](N(C)C(=O)c2ccc(C#Cc3ccncc3)cc2)C1` [Compound A70, N-((1R,3S)-3-ethylcarbamoyl-cyclopentyl)-N-methyl-4-pyridin-4-ylethynyl-benzamide] yielded a pIC50 of over 6.52.
In the case of `CN(C(=O)c1ccc(-c2nc3ccccc3s2)cc1)[C@@H]1CC[C@H](C(=O)NC2(C)CC2)C1` [Compound A71, 4-benzothiazol-2-yl-N-methyl-N-[(1R,3S)-3-(1-methyl-cyclopropylcarbamoyl)-cyclopentyl]-benzamide], the pIC50 was over 6.52.
Work on `CN(C(=O)c1ccc(C#Cc2ccc(F)cc2)cc1)[C@@H]1CC[C@H](C(=O)NC2(C)CC2)C1` [Compound A72, 4-(4-fluoro-phenylethynyl)-N-methyl-N-[(1R,3S)-3-(1-methyl-cyclopropylcarbamoyl)-cyclopentyl]-benzamide] yielded a pIC50 of over 6.52.
For `CCCC1(NC(=O)[C@H]2CC[C@@H](N(C)C(=O)c3ccc(-c4nc5ccccc5o4)cc3)C2)CC1` [Compound A73, 4-benzoxazol-2-yl-N-methyl-N-[(1R,3S)-3-(1-propyl-cyclopropylcarbamoyl)-cyclopentyl]-benzamide], the pIC50 was 5.52 to 6.52.
`CC[C@H](C)NC(=O)[C@H]1CC[C@@H](N(C)C(=O)c2ccc(-c3nc4ccccc4o3)cc2)C1` [Compound A74, 4-(1,3-benzoxazol-2-yl)-N-methyl-N-[(1R,3S)-3-[[(1S)-1-methylpropyl]-carbamoyl]cyclopentyl]benzamide] showed a pIC50 of over 6.52.
`CC[C@@H](C)NC(=O)[C@H]1CC[C@@H](N(C)C(=O)c2ccc(-c3nc4ccccc4o3)cc2)C1` [Compound A75, 4-(1,3-benzoxazol-2-yl)-N-methyl-N-[(1R,3S)-3-[[(1R)-1-methylpropyl]-carbamoyl]cyclopentyl]benzamide] was tested, and the pIC50 was over 6.52.
Work on `CN(C(=O)c1ccc(-c2nc3ccccc3o2)cc1)[C@@H]1CC[C@H](C(=O)NC2CCC2)C1` [Compound A76, 4-(1,3-benzoxazol-2-yl)-N-[(1R,3S)-3-(cyclobutylcarbamoyl)cyclopentyl]-N-methyl-benzamide] yielded a pIC50 of over 6.52.
`CN(C(=O)c1ccc(-c2nc3ccccc3o2)cc1)[C@@H]1CC[C@H](C(=O)N[C@H]2C[C@H](O)C2)C1` [Compound A77, 4-(1,3-benzoxazol-2-yl)-N-[(1R,3S)-3-[(trans-3-hydroxycyclobutyl)-carbamoyl]cyclopentyl]-N-methyl-benzamide] showed a pIC50 of over 6.52.
With `CN(C(=O)c1ccc(-c2nc3ccccc3o2)cc1)[C@@H]1CC[C@H](C(=O)N[C@H]2C[C@@H](O)C2)C1` [Compound A78, 4-(1,3-benzoxazol-2-yl)-N-[(1R,3S)-3-[(cis-3-hydroxycyclobutyl)-carbamoyl]cyclopentyl]-N-methyl-benzamide] the pIC50 was over 6.52.
`COc1cc(-c2nc3ccccc3o2)ccc1C(=O)N(C)[C@@H]1CC[C@H](C(=O)NC2(C)CC2)C1` [Compound A79, 4-(1,3-benzoxazol-2-yl)-2-methoxy-N-methyl-N-[(1R,3S)-3-[(1-methylcyclopropyl)carbamoyl]cyclopentyl]benzamide] was tested, and the pIC50 was 5.52 to 6.52.
`CN(C(=O)c1ccc(-c2ccncc2)cc1)[C@@H]1CC[C@H](C(=O)NC2(C)CC2)C1` [Compound A80, N-methyl-N-[(1R,3S)-3-[(1-methylcyclopropyl)carbamoyl]cyclopentyl]-4-(4-pyridyl)benzamide] showed a pIC50 of over 6.52.
`CN(C(=O)c1ccc(-c2ccc(C#N)cc2)cc1)[C@@H]1CC[C@H](C(=O)NC2(C)CC2)C1` [Compound A81, 4-(4-cyanophenyl)-N-methyl-N-[(1R,3S)-3-[(1-methylcyclopropyl)-carbamoyl]cyclopentyl]benzamide] gave a pIC50 of over 6.52.
`CN(C)C(=O)[C@H]1CC[C@@H](N(C)C(=O)c2ccc(-c3nc4ccccc4o3)cc2)C1` [Compound A82, 4-benzoxazol-2-yl-N-((1R,3S)-3-dimethylcarbamoyl-cyclopentyl)-N-methyl-benzamide] showed a pIC50 of 5.52 to 6.52.
Compound `CN(C(=O)c1ccc(-c2cccnc2)cc1)[C@@H]1CC[C@H](C(=O)NC2(C)CC2)C1` [Compound A83, N-methyl-N-[(1R,3S)-3-(1-methyl-cyclopropylcarbamoyl)-cyclopentyl]-4-pyridin-3-yl-benzamide] has a pIC50 of over 6.52.
Work on `CN(C(=O)c1ccc(-c2nc3ccccc3o2)cc1)[C@@H]1CC[C@H](C(=O)NC2(C)CCC2)C1` [Compound A84, 4-benzoxazol-2-yl-N-methyl-N-[(1R,3S)-3-(1-methyl-cyclobutylcarbamoyl)-cyclopentyl]-benzamide] yielded a pIC50 of over 6.52.
Compound `COc1cc(C(=O)N(C)[C@@H]2CC[C@H](C(=O)NC3(C)CC3)C2)ccc1-c1nc2ccccc2o1` [Compound A85, 4-benzoxazol-2-yl-3-methoxy-N-methyl-N-[(1R,3S)-3-(1-methyl-cyclopropylcarbamoyl)-cyclopentyl]-benzamide] has a pIC50 of over 6.52.
`CN(C(=O)c1ccc(-c2nc3ccccc3o2)cc1)[C@@H]1CC[C@H](C(N)=O)C1` [Compound A86, 4-benzoxazol-2-yl-N-((1R,3S)-3-carbamoyl-cyclopentyl)-N-methyl-benzamide] showed a pIC50 of 5.52 to 6.52.
For `CCNC(=O)[C@H]1CC[C@@H](N(C)C(=O)c2ccc(-c3cn4ccc(C#N)cc4n3)cc2)C1` [Compound A87, 4-(7-cyano-imidazo[1,2-a]pyridin-2-yl)-N-((1R,3S)-3-ethylcarbamoyl-cyclopentyl)-N-methyl-benzamide], the pIC50 was 5.52 to 6.52.
Work on `CCNC(=O)[C@H]1CC[C@@H](N(C)C(=O)c2ccc(-c3noc(C)n3)cc2)C1` [Compound A88, N-((1R,3S)-3-ethylcarbamoyl-cyclopentyl)-N-methyl-4-(5-methyl-[1,2,4]oxadiazol-3-yl)-benzamide] yielded a pIC50 of 4.30 to 5.52.
